Reference: patent US3984481A, “Bis-2-substituted-thiovinyl sulfones” (Chevron Research Company, priority 1976, dated 1976)
Where two headings read alike, the source gives them in different places.

What was measured:
[1] = system: Aspergillus niger; assay: Mycelial inhibition test
[2] = system: Fusarium moniloforma; assay: Mycelial inhibition test
[3] = system: Lemna; assay: Algae control (aquatic weed control) test; assay type: in vivo; conditions: read-out: Percent Aquatic Weed Control
Experimental: (§1) Representative compounds of the invention were tested as algicides by the following method. The algae test species were Lemna, Elodea and Spirolina. An acetone solution of the test compound and a small amount of an alkylarylpolyoxyethylene glycol-containing surfactant was prepared. This solution was mixed with a nutrient broth in a quantity sufficient to give a concentration of 2 ppm. A 240 ml container was filled with this mixture. A sample of the test algae was added to each container and the container was then placed in an illuminated environment and maintained at a temperature of about 20°C for incubation. The containers were observed periodically for algae growth (as compared to an untreated check). The algicidal effectiveness of the test compound was determined based on a final observation of algae growth after 7 to 10 days. The results of the test on a 0 to 100 basis -- 0 indicating no effectiveness and 100 indicating complete effectiveness -- are reported in Table III.

[4] = system: Elodea; assay: Algae control (aquatic weed control) test; assay type: in vivo; conditions: read-out: Percent Aquatic Weed Control
Experimental: as §1

[5] = system: Pythium ultimum; assay: Mycelial inhibition test
[6] = system: Rhizoctonia solani; assay: Mycelial inhibition test
[7] = system: Botrytis cinerea; assay: Mycelial inhibition test
[8] = system: Spirolina; assay: Algae control (aquatic weed control) test; assay type: in vivo; conditions: read-out: Percent Aquatic Weed Control
Experimental: as §1

[9] = Aspergillus niger, 99% control, 25°C, 24 hours, 500 ppm acetone solution sprayed
[10] = Fusarium moniloforma, 99% control, 25°C, 24 hours, 500 ppm acetone solution sprayed
[11] = 2 ppm, 20°C, 7 to 10 days, 0 no effectiveness, 100 complete effectiveness
[12] = Elodea, 2 ppm, 20°C, 7 to 10 days, 0 no effectiveness, 100 complete effectiveness
[13] = Pythium ultimum, 99% control, 25°C, 24 hours, 500 ppm acetone solution sprayed
[14] = Rhizoctonia solani, 99% control, 25°C, 24 hours, 500 ppm acetone solution sprayed
[15] = Botrytis cinerea, 99% control, 25°C, 24 hours, 500 ppm acetone solution sprayed
[16] = Spirolina, 2 ppm, 20°C, 7 to 10 days, 0 no effectiveness, 100 complete effectiveness

SMILES	Mycelia Inhibition, micrograms/cm^2 for 99% control [1, 9]	Mycelia Inhibition, micrograms/cm^2 for 99% control [2, 10]	inhibition at 2 ppm [3, 11]	inhibition at 2 ppm [4, 12]	Mycelia Inhibition, micrograms/cm^2 for 99% control [5, 13]	Mycelia Inhibition, micrograms/cm^2 for 99% control [6, 14]	Mycelia Inhibition, micrograms/cm^2 for 99% control [7, 15]	inhibition at 2 ppm [8, 16]	Mycelia Inhibition, micrograms/cm^2 for 99% control [7]	Mycelia Inhibition, micrograms/cm^2 for 99% control [1]	Mycelia Inhibition, micrograms/cm^2 for 99% control [2]	inhibition at 2 ppm [3]	inhibition at 2 ppm [8]	inhibition at 2 ppm [4]	Mycelia Inhibition, micrograms/cm^2 for 99% control [5]	Mycelia Inhibition, micrograms/cm^2 for 99% control [6]
O=S(=O)(C=CSc1ccc(Cl)cc1)C=CSc1ccc(Cl)cc1 [Compound 1]	0.86 micrograms/cm^2	> 1.7 micrograms/cm^2	68%	97%	0.22 micrograms/cm^2	0.9 micrograms/cm^2										
O=S(=O)(C=CSc1cccc(Cl)c1)C=CSc1cccc(Cl)c1 [Compound 2]	1.1 micrograms/cm^2	> 1.7 micrograms/cm^2	100%	94%	> 1.7 micrograms/cm^2	1.5 micrograms/cm^2	1.2 micrograms/cm^2	0%								
O=S(=O)(C=CSc1ccc(Br)cc1)C=CSc1ccc(Br)cc1 [Compound 3, bis-2-(4-bromophenylthio)vinyl sulfone]	0.73 micrograms/cm^2	> 1.7 micrograms/cm^2	94%	94%	> 1.7 micrograms/cm^2	1.4 micrograms/cm^2	1.4 micrograms/cm^2	40%								
O=S(=O)(C=CSc1cc(Cl)ccc1Cl)C=CSc1cc(Cl)ccc1Cl [Compound 4]	> 1.7 micrograms/cm^2	> 1.7 micrograms/cm^2	39%	70%	> 1.7 micrograms/cm^2	1.2 micrograms/cm^2	0.70 micrograms/cm^2	80%								
O=S(=O)(C=CSc1ccc(F)cc1)C=CSc1ccc(F)cc1 [Compound 5]	> 1.7 micrograms/cm^2	> 1.7 micrograms/cm^2	30%	70%	> 1.7 micrograms/cm^2	> 1.7 micrograms/cm^2	> 1.7 micrograms/cm^2	80%								
O=[N+]([O-])c1ccc(SC=CS(=O)(=O)C=CSc2ccc([N+](=O)[O-])cc2)cc1 [Compound 6]									0.7 micrograms/cm^2	0.34 micrograms/cm^2	> 1.7 micrograms/cm^2	99%	90%	78%	0.73 micrograms/cm^2	0.50 micrograms/cm^2
O=S(=O)(C=CSc1ccc(Cl)c(Cl)c1)C=CSc1ccc(Cl)c(Cl)c1 [Compound 7]	1.1 micrograms/cm^2	1.0 micrograms/cm^2	70%	90%	0.78 micrograms/cm^2	0.97 micrograms/cm^2	0.70 micrograms/cm^2	95%								
O=S(=O)(C=CSc1ccccc1)C=CSc1ccccc1 [Compound 8]	0.50 micrograms/cm^2	> 1.7 micrograms/cm^2	0%	39%	> 1.7 micrograms/cm^2	0.88 micrograms/cm^2	1.5 micrograms/cm^2	30%								
O=S(=O)(CCSc1ccc(Cl)cc1)CCSc1ccc(Cl)cc1 [Compound 10, bis-2-(4-chlorophenylthio)ethyl sulfone, reference compound]	> 1.7 micrograms/cm^2	> 1.7 micrograms/cm^2	0%	0%	> 1.7 micrograms/cm^2	> 1.7 micrograms/cm^2	> 1.7 micrograms/cm^2	0%								
